Source: patent US20070281992A1, “COMBINATION OF GYRASE B INHIBITORS AND PROTEIN SYNTHESIS INHIBITORS AND USES THEREOF” (priority 2006, published 2007)
Where two headings read alike, the source gives them in different places.

Experiments:
Format in all cases: cell-based
[1] = system: Methicillin-Resistant Staphylococcus aureus Isolates; assay: MIC assay (NCCLS broth dilution), MRSA clinical isolates; conditions: Staphylococcus aureus; for MIC: read-out: Minimal Inhibitory Concentration
Protocol: (§1) Antibiotics: novobiocin, tetracycline, minocycline, oxacillin, and vancomycin were all purchased from Sigma-Aldrich. Linezolid was obtained from Pfizer, Inc. Novobiocin/tetracycline and novobiocin/minocycline were tested in a 2.5:1 ratio to mimic the serum levels. (Vavra, J. J., 1967, Development of resistance to novobiocin, tetracycline, and novobiocin-tetracycline combinations in Staphylococcus aureus populations, J. Bacteriol 93(3):801). Compounds were tested across a concentration range consisting of 11 two-fold serial dilutions of test agent.
(§2) Stock solutions were prepared in sterile deionized water; novobiocin stock concentration was 1600 μg/mL and all other drugs stock solutions were prepared at 640 μg/mL. The stock solutions were allowed to sit at room temperature for one hour to auto-sterilize prior to use in the test. All compounds were in solution in water. The control agent was vancomycin hydrochloride, Sigma Chemical Lot # 015K0825.
(§3) The test organisms for the assay were 52 MSSA, 52 MRSA, 8 VISA, 7 VISE, and 3 LRSA isolates. Quality control strains included Staphylococcus aureus 0100 (ATCC 29213) and Enterococcus faecalis (ATCC 29212).
(§4) The MIC assay was performed according to published NCCLS guidelines. (National Committee for Clinical Laboratory Standards, Methods for Dilution Antimicrobial Susceptibility Tests for Bacteria that Grow Aerobically; Approved Standard-Sixth Edition, NCCLS Document M7-A6 [ISBN 1-56238-486-4], NCCLS, 940 West Valley Road, Suite 1400, Wayne, Pa. 19087-1898 USA, 2003). The test medium was Mueller Hinton II Broth for all organisms.

[2] = system: Vancomycin-intermediate Staphylococcus epidermidis Isolates; assay: MIC assay (NCCLS broth dilution), VISE isolates; conditions: for MIC: read-out: Minimal Inhibitory Concentration
Protocol: as §1, §2, §3, §4

[3] = system: Unconfirmed Vancomycin-intermediate Staphylococcus epidermidis Isolates; assay: MIC assay (NCCLS broth dilution), unconfirmed VISE isolates; conditions: for MIC: read-out: Minimal Inhibitory Concentration
Protocol: as §1, §2, §3, §4

[4] = system: Linezolid-Resistant Staphylococcus aureus Isolates; assay: MIC assay (NCCLS broth dilution), LRSA isolates; conditions: for MIC: read-out: Minimal Inhibitory Concentration
Protocol: as §1, §2, §3, §4

[5] = 52 MRSA isolates, combinations at 2.5:1, given as NB/partner

Question: What does the source list for `CO[C@@H]1[C@@H](OC(N)=O)[C@@H](O)[C@H](Oc2ccc3c(O)c(NC(=O)c4ccc(O)c(CC=C(C)C)c4)c(=O)oc3c2C)OC1(C)C` [NB, novobiocin]?
Answer: MIC ([1]; MRSA isolate 763, 22FEB06): 0.08 µg/mL; MIC ([1]; MRSA isolate 765, 22FEB06): 0.15 µg/mL; MIC ([1]; MRSA isolate 766, 22FEB06): 0.08 µg/mL; MIC ([1]; MRSA isolate 767, 22FEB06): 0.15 µg/mL; MIC ([1]; MRSA isolate 768, 22FEB06): 0.15 µg/mL; MIC ([1]; MRSA isolate 769, 22FEB06): 0.15 µg/mL; MIC ([1]; MRSA isolate 770, 22FEB06): ≤ 0.04 µg/mL; MIC ([1]; MRSA isolate 771, 22FEB06): 0.08 µg/mL; MIC ([1]; MRSA isolate 772, 22FEB06): 0.15 µg/mL; MIC ([1]; MRSA isolate 773, 24FEB06): 0.31 µg/mL; MIC ([1]; MRSA isolate 774, 24FEB06): 0.31 µg/mL; MIC ([1]; MRSA isolate 775, 24FEB06): 0.15 µg/mL; MIC ([1]; MRSA isolate 776, 24FEB06): 0.15 µg/mL; MIC ([1]; MRSA isolate 777, 24FEB06): ≤ 0.04 µg/mL; MIC ([1]; MRSA isolate 778, 24FEB06): ≤ 0.04 µg/mL; MIC ([1]; MRSA isolate 886, 24FEB06): 0.15 µg/mL; MIC ([1]; MRSA isolate 887, 24FEB06): 0.08 µg/mL; MIC ([1]; MRSA isolate 888, 24FEB06): 0.15 µg/mL; MIC ([1]; MRSA isolate 889, 24FEB06): 0.15 µg/mL; MIC ([1]; MRSA isolate 1004, 24FEB06): 0.31 µg/mL; MIC ([1]; MRSA isolate 1010, 22FEB06): 0.31 µg/mL; MIC ([1]; MRSA isolate 1012, 22FEB06): 0.31 µg/mL; MIC ([1]; MRSA isolate 1013, 22FEB06): 0.31 µg/mL; MIC ([1]; MRSA isolate 1014, 22FEB06): 0.15 µg/mL; MIC ([1]; MRSA isolate 1015, 22FEB06): 0.08 µg/mL; MIC ([1]; MRSA isolate 1016, 22FEB06): 0.31 µg/mL; MIC ([1]; MRSA isolate 1017, 22FEB06): 0.08 µg/mL; MIC ([1]; MRSA isolate 1021, 22FEB06): 0.15 µg/mL; MIC ([1]; MRSA isolate 1022, 22FEB06): 0.31 µg/mL; MIC ([1]; MRSA isolate 1023, 22FEB06): 0.15 µg/mL; MIC ([1]; MRSA isolate 1024, 22FEB06): 0.15 µg/mL; MIC ([1]; MRSA isolate 1025, 22FEB06): 0.15 µg/mL; MIC ([1]; MRSA isolate 1135, 22FEB06): 0.31 µg/mL; MIC ([1]; MRSA isolate 1136, 22FEB06): 0.31 µg/mL; MIC ([1]; MRSA isolate 1137, 22FEB06): 0.62 µg/mL; MIC ([1]; MRSA isolate 1138, 22FEB06): 0.15 µg/mL; MIC ([1]; MRSA isolate 1222, 03MAR06): 0.08 µg/mL; MIC ([1]; MRSA isolate 1222, 24FEB06): 0.08 µg/mL; MIC ([1]; MRSA isolate 1653, 03MAR06): ≤ 0.04 µg/mL; MIC ([1]; MRSA isolate 1658, 03MAR06): 0.08 µg/mL; MIC ([1]; MRSA isolate 1659, 03MAR06): 0.08 µg/mL; MIC ([1]; MRSA isolate 1661, 03MAR06): ≤ 0.04 µg/mL; MIC ([1]; MRSA isolate 1729, 03MAR06): 0.08 µg/mL; MIC ([1]; MRSA isolate 1730, 24FEB06): 0.15 µg/mL; MIC ([1]; MRSA isolate 2009, 24FEB06): ≤ 0.04 µg/mL; MIC ([1]; MRSA isolate 2010, 24FEB06): 0.15 µg/mL; MIC ([1]; MRSA isolate 2011, 24FEB06): 0.15 µg/mL; MIC50 [1, 5]: 0.15 µg/mL; MIC90 [1, 5]: 0.312 µg/mL; MIC Range ([2]; 4 VISE isolates, combinations at 2.5:1): ≦.04-.08 μg/ml; MIC ([2]; Staphylococcus epidermidis, VISE isolate 2020, 09MAR06): 0.08 µg/mL; MIC ([2]; Staphylococcus epidermidis, VISE isolate 2021, 09MAR06): ≤ 0.04 µg/mL; MIC ([2]; Staphylococcus epidermidis, VISE isolate 2022, 03MAR06): ≤ 0.04 µg/mL; MIC ([2]; Staphylococcus epidermidis, VISE isolate 2023, 03MAR06): < 0.04 µg/mL; MIC50 ([2]; Staphylococcus epidermidis, 4 VISE isolates, combinations at 2.5:1): ≤ 0.04 µg/mL; MIC Range ([3]; 3 unconfirmed VISE isolates, combinations at 2.5:1): ≦.04-5 μg/ml; MIC ([3]; Staphylococcus epidermidis, Unconfirmed VISE isolate 2024, 09MAR06): 5 µg/mL; MIC ([3]; Staphylococcus epidermidis, Unconfirmed VISE isolate 2025, 09MAR06): 0.312 µg/mL; MIC ([3]; Staphylococcus epidermidis, Unconfirmed VISE isolate 2026, 03MAR06): ≤ 0.04 µg/mL; MIC50 ([3]; Staphylococcus epidermidis, 3 unconfirmed VISE isolates, combinations at 2.5:1): 0.312 µg/mL; MIC Range ([4]; 3 LRSA isolates, combinations at 2.5:1): 0.15 µg/mL; MIC ([4]; Staphylococcus aureus, LRSA isolate 1651, 24FEB06): 0.15 µg/mL; MIC ([4]; Staphylococcus aureus, LRSA isolate 1652, 24FEB06): 0.15 µg/mL; MIC ([4]; Staphylococcus aureus, LRSA isolate 1725, 24FEB06): 0.15 µg/mL; MIC50 ([4]; Staphylococcus aureus, 3 LRSA isolates, combinations at 2.5:1): 0.15 µg/mL
